Reference: ChEMBL document CHEMBL4699491, “Identification of TNO155, an Allosteric SHP2 Inhibitor for the Treatment of Cancer” (J Med Chem, 2020)
Converted amounts (≈) assume the structure as drawn.

How the values were obtained:
KYSE-520 cell line = experiment: Antiproliferative activity against human KYSE-520 cells; assay type: functional, cell-based
[1] = Toxicity in mouse 3T3 cells under irradiation by NRU phototoxicity test; assay type: cell-based
Cytochrome P450 3A4 = Cytochrome P450 3A4 (Homo sapiens, UniProt P08684); experiment: Inhibition of CYP3A4 (unknown origin); assay type: ADME
Sequence of Cytochrome P450 3A4 (P08684 whole entry): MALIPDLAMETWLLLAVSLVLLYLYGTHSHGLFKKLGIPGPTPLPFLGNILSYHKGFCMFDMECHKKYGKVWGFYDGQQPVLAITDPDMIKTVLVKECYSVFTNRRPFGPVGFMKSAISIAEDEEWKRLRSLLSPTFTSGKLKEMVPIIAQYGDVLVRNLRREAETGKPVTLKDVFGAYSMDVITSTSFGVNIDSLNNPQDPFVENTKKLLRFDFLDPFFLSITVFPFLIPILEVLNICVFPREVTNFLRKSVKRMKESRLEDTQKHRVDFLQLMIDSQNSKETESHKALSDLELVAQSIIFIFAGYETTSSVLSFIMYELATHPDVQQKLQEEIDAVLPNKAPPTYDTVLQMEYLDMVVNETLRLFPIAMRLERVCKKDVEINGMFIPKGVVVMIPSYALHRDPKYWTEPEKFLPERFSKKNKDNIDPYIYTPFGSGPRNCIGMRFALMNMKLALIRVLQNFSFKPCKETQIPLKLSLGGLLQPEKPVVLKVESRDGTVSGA

Cytochrome P450 2D6 = Cytochrome P450 2D6 (Homo sapiens, UniProt P10635); experiment: Inhibition of CYP2D6 (unknown origin); assay type: ADME
Sequence of Cytochrome P450 2D6 (P10635 whole entry): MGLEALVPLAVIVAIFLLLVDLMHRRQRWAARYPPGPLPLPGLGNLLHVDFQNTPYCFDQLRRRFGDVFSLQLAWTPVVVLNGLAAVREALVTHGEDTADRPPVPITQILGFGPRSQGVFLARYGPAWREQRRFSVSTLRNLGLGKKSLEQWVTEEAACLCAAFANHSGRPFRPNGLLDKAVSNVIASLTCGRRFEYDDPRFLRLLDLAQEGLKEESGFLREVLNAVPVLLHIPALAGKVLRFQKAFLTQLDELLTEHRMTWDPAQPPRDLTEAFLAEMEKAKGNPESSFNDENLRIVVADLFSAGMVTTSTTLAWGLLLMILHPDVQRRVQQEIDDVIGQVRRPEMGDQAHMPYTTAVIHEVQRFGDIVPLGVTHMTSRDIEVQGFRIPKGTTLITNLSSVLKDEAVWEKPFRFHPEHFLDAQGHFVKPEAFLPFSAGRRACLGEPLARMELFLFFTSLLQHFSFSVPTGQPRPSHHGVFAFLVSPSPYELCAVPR

Cytochrome P450 2C9 = Cytochrome P450 2C9 (Homo sapiens, UniProt P11712); experiment: Inhibition of CYP2C9 (unknown origin); assay type: ADME
Sequence of Cytochrome P450 2C9 (P11712 whole entry): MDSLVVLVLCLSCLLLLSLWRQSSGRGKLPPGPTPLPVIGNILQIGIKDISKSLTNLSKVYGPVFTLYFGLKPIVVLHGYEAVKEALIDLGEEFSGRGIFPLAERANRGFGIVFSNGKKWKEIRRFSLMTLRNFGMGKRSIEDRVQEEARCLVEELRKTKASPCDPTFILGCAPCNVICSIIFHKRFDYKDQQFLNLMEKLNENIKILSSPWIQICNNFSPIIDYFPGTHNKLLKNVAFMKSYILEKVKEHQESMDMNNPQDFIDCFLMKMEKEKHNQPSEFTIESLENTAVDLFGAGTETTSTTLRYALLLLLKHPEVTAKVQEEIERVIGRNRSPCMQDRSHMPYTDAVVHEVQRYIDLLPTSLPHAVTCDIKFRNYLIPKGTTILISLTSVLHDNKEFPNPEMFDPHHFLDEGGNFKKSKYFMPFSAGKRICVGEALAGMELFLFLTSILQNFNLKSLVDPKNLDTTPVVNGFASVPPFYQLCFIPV

[2] = Toxicity in NU/NU mouse xenografted with human KYSE-520 cells assessed as induction of body weight loss eat 2.5 to 20 mg/kg, po BID for 2 weeks; assay type: organism-based; details: in vivo, 336 h, dose 2.5-20 mg/kg
[3] = Volume of distribution at steady state in C57BL/6 mouse at 1 mg/kg, iv by LC-MS/MS analysis; assay type: ADME, organism-based; details: in vivo, read-out: Vdss
[4] = Terminal half life in C57BL/6 mouse at 1 mg/kg, iv by LC-MS/MS analysis; assay type: ADME, organism-based; details: in vivo, read-out: beta t1/2 (converted)
[5] = AUC/dose in C57BL/6 mouse at 1 mg/kg, iv by LC-MS/MS analysis; assay type: ADME, organism-based; details: in vivo
[6] = AUC/dose in C57BL/6 mouse at 5 mg/kg, po by LC-MS/MS analysis; assay type: ADME, organism-based; details: in vivo
[7] = Cmax/dose in C57BL/6 mouse at 5 mg/kg, po by LC-MS/MS analysis; assay type: ADME, organism-based; details: in vivo
[8] = Tmax in C57BL/6 mouse at 5 mg/kg, po by LC-MS/MS analysis; assay type: ADME, organism-based; details: in vivo
[9] = Oral bioavailability in C57BL/6 mouse at 5 mg/kg by LC-MS/MS analysis; assay type: ADME, organism-based; details: in vivo
[10] = Protein binding in C57BL/6 mouse plasma; assay type: ADME, cell-free; details: read-out: PPB (converted)
[11] = Clearance in Sprague-Dawley rat at 1 mg/kg, iv by LC-MS/MS analysis; assay type: ADME, organism-based; details: in vivo
[12] = Volume of distribution at steady state in Sprague-Dawley rat at 1 mg/kg, iv by LC-MS/MS analysis; assay type: ADME, organism-based; details: in vivo, read-out: Vdss
[13] = Terminal half life in Sprague-Dawley rat at 1 mg/kg, iv by LC-MS/MS analysis; assay type: ADME, organism-based; details: in vivo, read-out: beta t1/2 (converted)
[14] = AUC/dose in Sprague-Dawley rat at 1 mg/kg, iv by LC-MS/MS analysis; assay type: ADME, organism-based; details: in vivo
[15] = AUC/dose in Sprague-Dawley rat at 5 mg/kg, po by LC-MS/MS analysis; assay type: ADME, organism-based; details: in vivo
[16] = Cmax/dose in Sprague-Dawley rat at 5 mg/kg, po by LC-MS/MS analysis; assay type: ADME, organism-based; details: in vivo
[17] = Tmax in Sprague-Dawley rat at 5 mg/kg, po by LC-MS/MS analysis; assay type: ADME, organism-based; details: in vivo
[18] = Oral bioavailability in Sprague-Dawley rat at 5 mg/kg by LC-MS/MS analysis; assay type: ADME, organism-based; details: in vivo
[19] = Protein binding in Sprague-Dawley rat plasma; assay type: ADME, cell-free; details: read-out: PPB (converted)
[20] = Clearance in beagle dog at 0.2 mg/kg, iv by LC-MS/MS analysis; assay type: ADME, organism-based, Canis lupus familiaris; details: in vivo
[21] = Volume of distribution at steady state in beagle dog at 0.2 mg/kg, iv by LC-MS/MS analysis; assay type: ADME, organism-based, Canis lupus familiaris; details: in vivo, read-out: Vdss
[22] = Terminal half life in beagle dog at 0.2 mg/kg, iv by LC-MS/MS analysis; assay type: ADME, organism-based, Canis lupus familiaris; details: in vivo, read-out: beta t1/2 (converted)
[23] = AUC/dose in beagle dog at 0.2 mg/kg, iv by LC-MS/MS analysis; assay type: ADME, organism-based, Canis lupus familiaris; details: in vivo
[24] = AUC/dose in beagle dog at 1 mg/kg, po by LC-MS/MS analysis; assay type: ADME, organism-based, Canis lupus familiaris; details: in vivo
[25] = Cmax/dose in beagle dog at 1 mg/kg, po by LC-MS/MS analysis; assay type: ADME, organism-based, Canis lupus familiaris; details: in vivo
[26] = Tmax in beagle dog at 1 mg/kg, po by LC-MS/MS analysis; assay type: ADME, organism-based, Canis lupus familiaris; details: in vivo
[27] = Oral bioavailability in beagle dog at 1 mg/kg by LC-MS/MS analysis; assay type: ADME, organism-based, Canis lupus familiaris; details: in vivo
[28] = Protein binding in beagle dog plasma; assay type: ADME, cell-free, Canis lupus familiaris; details: read-out: PPB (converted)
[29] = Clearance in cynomolgus monkey at 0.3 mg/kg, iv by LC-MS/MS analysis; assay type: ADME, organism-based, Macaca fascicularis; details: in vivo
[30] = Volume of distribution at steady state in cynomolgus monkey at 0.3 mg/kg, iv by LC-MS/MS analysis; assay type: ADME, organism-based, Macaca fascicularis; details: in vivo, read-out: Vdss
[31] = Terminal half life in cynomolgus monkey at 0.3 mg/kg, iv by LC-MS/MS analysis; assay type: ADME, organism-based, Macaca fascicularis; details: in vivo, read-out: beta t1/2 (converted)
[32] = AUC/dose in cynomolgus monkey at 0.3 mg/kg, iv by LC-MS/MS analysis; assay type: ADME, organism-based, Macaca fascicularis; details: in vivo
[33] = AUC/dose in cynomolgus monkey at 1 mg/kg, po by LC-MS/MS analysis; assay type: ADME, organism-based, Macaca fascicularis; details: in vivo
[34] = Cmax/dose in cynomolgus monkey at 1 mg/kg, po by LC-MS/MS analysis; assay type: ADME, organism-based, Macaca fascicularis; details: in vivo
[35] = Tmax in cynomolgus monkey at 1 mg/kg, po by LC-MS/MS analysis; assay type: ADME, organism-based, Macaca fascicularis; details: in vivo
[36] = Oral bioavailability in cynomolgus monkey at 1 mg/kg by LC-MS/MS analysis; assay type: ADME, organism-based, Macaca fascicularis; details: in vivo
[37] = Protein binding in cynomolgus monkey plasma; assay type: ADME, cell-free, Macaca fascicularis; details: read-out: PPB (converted)
[38] = target: Voltage-gated inwardly rectifying potassium channel KCNH2 (Homo sapiens, UniProt Q12809)
Sequence of Voltage-gated inwardly rectifying potassium channel KCNH2 (Q12809 whole entry): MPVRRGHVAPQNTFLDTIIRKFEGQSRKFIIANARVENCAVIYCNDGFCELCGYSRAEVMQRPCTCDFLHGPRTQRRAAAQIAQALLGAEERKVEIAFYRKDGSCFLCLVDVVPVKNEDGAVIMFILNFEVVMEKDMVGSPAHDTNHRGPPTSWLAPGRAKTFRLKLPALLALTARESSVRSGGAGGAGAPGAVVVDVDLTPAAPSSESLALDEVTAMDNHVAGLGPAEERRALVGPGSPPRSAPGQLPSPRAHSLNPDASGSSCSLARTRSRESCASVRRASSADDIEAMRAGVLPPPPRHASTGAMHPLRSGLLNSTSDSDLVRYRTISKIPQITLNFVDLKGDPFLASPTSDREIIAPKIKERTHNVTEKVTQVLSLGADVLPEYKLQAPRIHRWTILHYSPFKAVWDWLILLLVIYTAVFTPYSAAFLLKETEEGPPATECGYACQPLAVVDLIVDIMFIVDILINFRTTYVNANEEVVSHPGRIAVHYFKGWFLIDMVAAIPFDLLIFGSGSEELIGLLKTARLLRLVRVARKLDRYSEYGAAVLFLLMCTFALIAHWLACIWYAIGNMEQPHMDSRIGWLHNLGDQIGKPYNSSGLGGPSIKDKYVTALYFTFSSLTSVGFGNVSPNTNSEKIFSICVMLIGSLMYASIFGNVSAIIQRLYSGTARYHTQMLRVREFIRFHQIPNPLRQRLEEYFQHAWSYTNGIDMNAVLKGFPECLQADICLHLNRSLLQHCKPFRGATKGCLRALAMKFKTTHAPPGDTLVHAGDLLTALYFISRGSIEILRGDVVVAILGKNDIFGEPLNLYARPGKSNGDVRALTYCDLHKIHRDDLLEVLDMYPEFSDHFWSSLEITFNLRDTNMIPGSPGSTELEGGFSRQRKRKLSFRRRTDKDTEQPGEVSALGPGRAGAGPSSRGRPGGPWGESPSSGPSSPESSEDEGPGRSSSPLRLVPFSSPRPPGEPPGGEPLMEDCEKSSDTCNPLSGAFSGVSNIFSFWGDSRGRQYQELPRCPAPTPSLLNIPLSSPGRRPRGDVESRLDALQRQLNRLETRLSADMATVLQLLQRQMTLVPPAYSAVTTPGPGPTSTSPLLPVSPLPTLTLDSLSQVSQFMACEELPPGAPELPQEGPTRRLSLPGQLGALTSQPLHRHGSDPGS
Description: Inhibition of human ERG by Q-patch assay

physchem [39] = details: aqueous, pH 6.8
Description: Aqueous solubility of the compound at pH 6.8

physchem [40] = details: octanol/water
Description: Lipophilicity, logP of the compound

physchem [41] = details: octanol/water; remark: listed apart in the source
Description: Distribution coefficient, logD of the compound

[42] = target: T1, Tyrosine-protein phosphatase non-receptor type 11 (Homo sapiens, UniProt Q06124); experiment: Allosteric inhibition of 6x-histidine tagged human SHP2 (Met1-L525 residues) expressed in Escherichia coli BL21 Star (DE3) using IRS1_pY1172(dPEG8)[…] incubated for 30 mins by fluorescence based DIFMUP assay
T1 sequence (Q06124 whole entry): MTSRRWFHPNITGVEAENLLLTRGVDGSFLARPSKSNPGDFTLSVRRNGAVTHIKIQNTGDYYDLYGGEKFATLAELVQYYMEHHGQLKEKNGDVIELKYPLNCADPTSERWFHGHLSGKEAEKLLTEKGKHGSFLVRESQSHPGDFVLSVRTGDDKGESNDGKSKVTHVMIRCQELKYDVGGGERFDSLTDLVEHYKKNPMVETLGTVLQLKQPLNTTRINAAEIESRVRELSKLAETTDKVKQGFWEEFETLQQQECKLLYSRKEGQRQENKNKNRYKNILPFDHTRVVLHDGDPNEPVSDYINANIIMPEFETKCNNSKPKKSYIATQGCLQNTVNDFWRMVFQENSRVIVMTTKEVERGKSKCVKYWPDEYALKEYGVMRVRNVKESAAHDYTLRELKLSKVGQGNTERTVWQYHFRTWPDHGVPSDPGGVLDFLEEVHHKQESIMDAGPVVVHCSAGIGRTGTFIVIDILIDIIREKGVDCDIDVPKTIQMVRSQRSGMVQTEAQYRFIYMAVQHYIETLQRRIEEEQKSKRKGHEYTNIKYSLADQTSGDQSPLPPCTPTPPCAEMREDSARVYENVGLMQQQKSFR

[43] = target: T1, Tyrosine-protein phosphatase non-receptor type 11
Description: Allosteric inhibition of human SHP2 in human KYSE-520 cells assessed as reduction in ERK1/2 phosphorylation by fluorescence based assay

A-375 = experiment: Antiproliferative activity against human A-375 cells; assay type: functional, cell-based
[44] = target: Serine/threonine-protein kinase B-raf (Homo sapiens, UniProt P15056); experiment: Inhibition of RAF in human A-375 cells assessed as reduction in p-ERK levels; assay type: cell-based
Sequence of Serine/threonine-protein kinase B-raf (P15056 whole entry): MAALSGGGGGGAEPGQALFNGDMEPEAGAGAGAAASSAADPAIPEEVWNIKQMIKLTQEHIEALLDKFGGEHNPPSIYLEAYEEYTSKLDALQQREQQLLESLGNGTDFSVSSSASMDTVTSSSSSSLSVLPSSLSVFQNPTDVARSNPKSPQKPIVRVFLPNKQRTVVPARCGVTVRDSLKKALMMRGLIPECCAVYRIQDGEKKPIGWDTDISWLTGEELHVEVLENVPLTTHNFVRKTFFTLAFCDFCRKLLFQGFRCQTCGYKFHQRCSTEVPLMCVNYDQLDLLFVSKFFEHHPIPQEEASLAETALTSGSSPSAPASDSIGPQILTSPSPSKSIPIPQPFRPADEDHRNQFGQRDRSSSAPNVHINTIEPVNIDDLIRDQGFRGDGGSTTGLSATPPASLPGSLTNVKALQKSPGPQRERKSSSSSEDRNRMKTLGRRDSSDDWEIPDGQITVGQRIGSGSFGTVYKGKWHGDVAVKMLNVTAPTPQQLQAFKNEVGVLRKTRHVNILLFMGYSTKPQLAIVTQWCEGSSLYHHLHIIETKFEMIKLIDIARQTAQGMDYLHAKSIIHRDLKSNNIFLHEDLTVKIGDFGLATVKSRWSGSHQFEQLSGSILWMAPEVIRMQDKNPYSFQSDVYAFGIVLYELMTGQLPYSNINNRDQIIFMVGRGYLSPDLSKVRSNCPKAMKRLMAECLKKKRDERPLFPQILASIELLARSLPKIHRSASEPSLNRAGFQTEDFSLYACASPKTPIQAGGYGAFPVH

[45] = target: T2, Tyrosine-protein phosphatase non-receptor type 11 (Homo sapiens) (UniProt Q06124); details: filed as negative allosteric modulator
T2 sequence (whole entry): T1 sequence (Q06124 whole entry)

[46] = octanol/water
Description: Lipophilicity, logP of the compound

NCI-H358 = experiment: Antiproliferative activity against human NCI-H358 cells; assay type: functional, cell-based
MIA PaCa-2 = experiment: cells; details: Homo sapiens
Description: Antiproliferative activity against human MIA PaCa-2 cells

Structure (SMILES): CC(=O)Nc1cccc(-n2c(=O)n(C3CC3)c(=O)c3c(Nc4ccc(I)cc4F)n(C)c(=O)c(C)c32)c1 [TRAMETINIB]
- IC50 (KYSE-520 cell line; Homo sapiens, KYSE-520): 10 nM

Structure (SMILES): C[C@@H]1OCC2(CCN(c3cnc(Sc4ccnc(N)c4Cl)c(N)n3)CC2)[C@@H]1N [BATOPROTAFIB]
- IC50 (KYSE-520 cell line; kyse-520): 100 nM
- IC50 [1]: 666000 nM
- inhibition (INH) (Cytochrome P450 3A4): Not Active
- inhibition (INH) (Cytochrome P450 2D6): Not Active
- inhibition (INH) (Cytochrome P450 2C9): Not Active
- Activity [2]: Non-Toxic
- Vd [3]: 3 L/kg
- half-life [4]: 2 h
- AUC/dose [5]: 1530 nM·h
- AUC/dose [6]: 1190 nM·h
- Cmax/dose [7]: 357 nM
- Tmax [8]: 0.8 h
- bioavailability [9]: 78%
- fraction unbound [10]: 0.24
- clearance [11]: 15 mL/min/kg
- Vd [12]: 7 L/kg
- half-life [13]: 8 h
- AUC/dose [14]: 2407 nM·h
- AUC/dose [15]: 2483 nM·h
- Cmax/dose [16]: 657 nM
- Tmax [17]: 1 h
- bioavailability [18]: 100%
- fraction unbound [19]: 0.19
- clearance [20]: 4 mL/min/kg
- Vd [21]: 3 L/kg
- half-life [22]: 9 h
- AUC/dose [23]: 10690 nM·h
- AUC/dose [24]: 15854 nM·h
- Cmax/dose [25]: 1207 nM
- Tmax [26]: 2 h
- bioavailability [27]: > 100%
- fraction unbound [28]: 0.36
- clearance [29]: 6 mL/min/kg
- Vd [30]: 4 L/kg
- half-life [31]: 9 h
- AUC/dose [32]: 6438 nM·h
- AUC/dose [33]: 3848 nM·h
- Cmax/dose [34]: 286 nM
- Tmax [35]: 2 h
- bioavailability [36]: 60%
- fraction unbound [37]: 0.39
- IC50 [38]: > 30000 nM
- solubility (physchem [39]): 736 µM (≈ 311 µg/mL)
- logP (physchem [40]): 1.6
- logD (physchem [41]): 0.6

Structure (SMILES): CC1(N)CCN(c2cnc(Sc3cccnc3C(F)(F)F)c(N)n2)CC1
- IC50 [42]: 67 nM
- IC50 [43]: 339 nM
- IC50 [38]: 17400 nM
- solubility (physchem [39]): 85 µM (≈ 32.7 µg/mL)
- logP (physchem [40]): 2
- logD (physchem [41]): -0.5

Structure (SMILES): Cc1ccc(NC(=O)c2ccnc(C(F)(F)F)c2)cc1-c1cc(OCCO)nc(N2CCOCC2)c1 [NAPORAFENIB]
- IC50 (A-375): 240 nM
- IC50 [44]: 78 nM

Structure (SMILES): CC1(N)CCN(c2cnc(Cc3cccc(Cl)c3Cl)c(N)n2)CC1
- IC50 [42]: 9900 nM

Structure (SMILES): CC1(N)CCN(c2cnc(-c3cccc(Cl)c3Cl)c(N)n2)CC1
- IC50 (KYSE-520 cell line; Homo sapiens, KYSE-520): 2500 nM
- IC50 [1]: 4500 nM
- ΔTm [45]: 7.5 °C
- logP [46]: 2.6
- solubility (physchem [39]): 290 µM (≈ 102 µg/mL)
- logD (physchem [41]): 0.92

Structure (SMILES): C=CC(=O)N1CCN(c2nc(=O)n(-c3c(C)ccnc3C(C)C)c3nc(-c4c(O)cccc4F)c(F)cc23)[C@@H](C)C1 [SOTORASIB]
- IC50 (NCI-H358): < 30 nM

Structure (SMILES): Nc1nc(N2CCC3(CCC[C@H]3N)CC2)cnc1Sc1ccnc(N)c1Cl
- IC50 (KYSE-520 cell line; Homo sapiens, KYSE-520): 123 nM
- IC50 [43]: 24 nM
- IC50 [38]: > 30000 nM
- solubility (physchem [39]): 561 µM (≈ 228 µg/mL)
- logP (physchem [40]): 2.2
- logD (physchem [41]): -0.6

Structure (SMILES): CC1(CN)CCN(c2cnc(Sc3cccnc3C(F)(F)F)c(N)n2)CC1
- IC50 (KYSE-520 cell line; Homo sapiens, KYSE-520): 4050 nM

Structure (SMILES): C=C(F)C(=O)N1CCN(c2nc(OC[C@@H]3CCCN3C)nc3c2CCN(c2cccc4cccc(Cl)c24)C3)C[C@@H]1CC#N [ADAGRASIB]
- IC50 (MIA PaCa-2): 100 nM
